Results as given in US9169252B2 (BRISTOL-MYERS SQUIBB COMPANY, priority 2014, dated 2015).
Where two headings read alike, the source gives them in different places.

Key:
[1] = biological target: IRAK4 (Homo sapiens (Human), UniProt Q9NWZ3); assay: IRAK4 Inhibition Assay; type: biochemical; conditions: ATP 500 μM, read-out: IRAK4 IC50
Summary of the method: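 Mobility-shift readout: fluorescent substrate and phosphoproduct resolved electrophoretically on Caliper LabChip 3000 after EDTA quench (35 mM). Enzyme reaction of IRAK4, substrates and test compound ran 60 min at room temperature.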

[2] = tested on: TLR2 induced IL-6 in peripheral blood mononuclear cells (PBMCs); assay: PBMC TLR2 Induced IL-6 Assay; type: cell-based, human; conditions: IL-6 by ELISA; for EC50: read-out: Cell EC50; for IC50: read-out: Cell IC50
Summary of the method: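 Lipoteichoic acid at 10 µg/ml served as TLR2 stimulus for 5 hours, following a 30-minute compound pretreatment at 37° C. Cells were Ficoll-isolated human PBMCs, 250000 cells/well, cultured in RPMI plus 10% heat-inactivated FCS.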

[3] = Homo sapiens, PBMC, PBMC TLR2 Induced IL-6 Assay, lipoteichoic acid stimulation
[4] = Homo sapiens, PBMC, human PBMCs, lipoteichoic acid stimulated
[5] = PBMC TLR2 Induced IL-6 Assay, lipoteichoic acid stimulation
[6] = human PBMCs, lipoteichoic acid stimulated

Chain of IRAK4 (Q9NWZ3 whole entry, species assumed): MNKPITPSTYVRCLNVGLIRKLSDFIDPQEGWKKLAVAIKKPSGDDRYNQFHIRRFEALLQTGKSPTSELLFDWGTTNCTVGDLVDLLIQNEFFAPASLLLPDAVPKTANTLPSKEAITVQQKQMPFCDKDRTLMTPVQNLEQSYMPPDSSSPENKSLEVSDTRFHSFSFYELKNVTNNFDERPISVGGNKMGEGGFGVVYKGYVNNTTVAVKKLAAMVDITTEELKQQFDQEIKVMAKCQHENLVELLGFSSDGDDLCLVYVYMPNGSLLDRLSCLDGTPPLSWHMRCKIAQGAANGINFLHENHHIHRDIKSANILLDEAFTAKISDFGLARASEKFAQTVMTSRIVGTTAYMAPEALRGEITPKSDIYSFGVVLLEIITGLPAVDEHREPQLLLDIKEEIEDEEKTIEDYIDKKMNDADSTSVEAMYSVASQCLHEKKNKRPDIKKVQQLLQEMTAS

| Structure (SMILES) | IC50 ([1]; IRAK4 Inhibition Assay) [nM] | EC50 [2, 3] [nM] | further results |
| --- | --- | --- | --- |
| CC(F)[C@H](C)Nc1cc(-n2ccc3cc(C#N)cnc32)ncc1C(=O)NC[C@@H](F)C(C)(C)O (stereo partly drawn) [Example 72, 6-(5-cyano-1H-pyrrolo[2,3-b]pyridin-1-yl)-N—((R)-2-fluoro-3-hydroxy-3-methylbutyl)-4-(((2S)-3-fluorobutan-2-yl)amino) nicotinamide] | 2 | 72 |  |
| CCOC(=O)N1CC(Nc2cc(-n3ncc4cc(C#N)cnc43)ncc2C(=O)NC[C@@H](F)C(C)(C)O)C1 [Example 543] |  |  | IC50 ([1]; IRAK4 0.6 nM): 6.8 nM; IC50 [2, 4]: 404 nM |
| [2H]C([2H])([2H])OC(C)(C)[C@H](F)CNC(=O)c1cnc(-n2ncc3cc(C#N)cnc32)cc1NC(C)C [Example 210] | 3.1 | 206 |  |
| CC(C)(C)NC(=O)c1cnc(-n2ncc3cc(C#N)cnc32)cc1Nc1cnn(CC(F)F)c1 [Example 390] | 17 |  | IC50 [2, 3]: 199 nM |
| CCNc1cc(-n2ccc3cc(Cl)cnc32)ncc1C(=O)NC[C@@H](F)C(C)(C)O [Example 33, (R)-6-(5-chloro-1H-pyrrolo[2,3-b]pyridin-1-yl)-4-(ethylamino)-N-(2-fluoro-3-hydroxy-3-methylbutyl)nicotinamide] | 7.1 | 661 | IC50 [2, 3]: 403 nM |
| CC(F)[C@H](C)Nc1cc(-n2ncc3cc(C#N)cnc32)ncc1C(=O)NC[C@@H](F)C(C)(C)O (single isomer, unassigned) [Example 203] | 3.9 |  | EC50 [2, 5]: 124 nM |
| CC(C)(O)[C@H](F)CNC(=O)c1cnc(-n2ncc3cc(C#N)cnc32)cc1N[C@@H]1C[C@H]1CO (single isomer, unassigned) [Example 643] |  |  | IC50 ([1]; IRAK4 0.6 nM): 5.4 nM; IC50 [2, 6]: 320 nM |
| COc1cccc(Nc2cc(-n3ccc4cc(C#N)cnc43)ncc2C(=O)NC[C@@H](F)C(C)(C)O)c1 [Example 418] |  |  | IC50 ([1]; IRAK4 0.6 nM): 4.4 nM; EC50 [2, 4]: 65 nM |
| C[C@@H](F)CNc1cc(-n2ncc3cc(C#N)c(N)nc32)ncc1C(=O)NC[C@@H](F)C(C)(C)O [Example 591] |  |  | IC50 ([1]; IRAK4 0.6 nM): 2.7 nM; IC50 [2, 4]: 160 nM |
| CC(C)Nc1cc(-n2ccc3cc(C#N)cnc32)ncc1C(=O)NC[C@@H](F)C(C)NC(C)C (single isomer, unassigned) [Example 129] | 4.1 |  | EC50 [2, 5]: 451 nM |
| CC(C)(O)[C@H](F)CNC(=O)c1cnc(-n2ncc3cc(C#N)cnc32)cc1NC1CC1 [Example 139, (R)-6-(5-cyano-1H-pyrazolo[3,4-b]pyridin-1-yl)-4-(cyclopropylamino)-N-(2-fluoro-3-hydroxy-3-methylbutyl)nicotinamide] | 2.9 | 118 |  |
| CC(C)Nc1cc(-n2ncc3cc(C#N)cnc32)ncc1C(=O)Nc1cnn(C2CCOCC2)c1 [Example 271] | 15.9 |  | IC50 [2, 3]: 176 nM |
| CC(C)(O)[C@H](F)CNC(=O)c1cnc(-n2cnc3cc(Cl)cnc32)cc1Nc1cnn(CCCF)c1 [Example 370] | 2.6 |  | IC50 [2, 3]: 84 nM |
| CC(C)(C)Nc1cc(-n2ncc3cc(C#N)c(N)nc32)ncc1C(=O)NC[C@@H](F)C(C)(C)O [Example 293] | 1 |  | IC50 [2, 3]: 32 nM |
| CCOCCNC(=O)c1cnc(-n2ncc3cc(C#N)cnc32)cc1Nc1cnn(CC(F)F)c1 [Example 392] | 7.1 |  | IC50 [2, 3]: 16 nM |
| CNC(=O)c1cnc(-n2ncc3cc(C#N)c(N)nc32)cc1NC(C)C [Example 305] | 9.2 |  | IC50 [2, 3]: 207 nM |

| Structure (SMILES) | IC50 ([1]; IRAK4 Inhibition Assay) [nM] | EC50 [2, 3] [nM] | further results |
| --- | --- | --- | --- |
| CC(C)(O)[C@H](F)CNC(=O)c1cnc(-n2ccc3cc(C#N)cnc32)cc1Nc1ccc(-n2ccnc2)cc1 [Example 471] |  |  | IC50 ([1]; IRAK4 0.6 nM): 10.1 nM; EC50 [2, 4]: 194 nM |
| CC(C)Nc1cc(-n2ccc3cc(C#N)cnc32)ncc1C(=O)NCCC(C)(C)O [Example 11, 6-(5-cyano-1H-pyrrolo[2,3-b]pyridin-1-yl)-N-(3-hydroxy-3-methylbutyl)-4-(isopropylamino)nicotinamide] | 1.7 | 50 |  |
| CC(C)Nc1cc(-n2ccc3cc(C#N)cnc32)ncc1C(=O)N[C@H]1CC[C@](C)(O)CC1 [Example 99, 6-(5-cyano-1H-pyrrolo[2,3-b]pyridin-1-yl)-N-((trans)-4-hydroxy-4-methylcyclohexyl)-4-(isopropylamino)nicotinamide] | 4.6 | 223 |  |
| CNC(=O)[C@H]1CC[C@H](NC(=O)c2cnc(-n3ncc4cc(C#N)c(N)nc43)cc2N[C@@H]2CCCC[C@H]2F)CC1 [Example 629] |  |  | IC50 ([1]; IRAK4 0.6 nM): 3.3 nM; IC50 [2, 4]: 135 nM |
| CC(C)Nc1cc(-n2ccc3cc(C#N)cnc32)ncc1C(=O)NCC(=O)NC1CCS(=O)(=O)C1 (centres unmarked) [Example 70, 6-(5-cyano-1H-pyrrolo[2,3-b]pyridin-1-yl)-N-(2-((1,1-dioxidotetrahydrothiophen-3-yl)amino)-2-oxoethyl)-4-(isopropylamino)nicotinamide] | 2.8 | 210 |  |
| CC(C)Nc1cc(-n2ncc3cc(C#N)cnc32)ncc1C(=O)NCc1nc(Cc2ccccc2)no1 [Example 267] | 4.5 |  | IC50 [2, 3]: 516 nM |
| CS(=O)(=O)[C@H]1CC[C@H](NC(=O)c2cnc(-n3ccc4cc(C#N)cnc43)cc2NC2CC2)CC1 [Example 104, 6-(5-Cyano-1H-pyrrolo[2,3-b]pyridin-1-yl)-4-(cyclopropylamino)-N-((trans)-4-(methylsulfonyl)cyclohexyl)nicotinamide] | 1.7 | 67 |  |
| CC(C)(O)[C@H](F)CNC(=O)c1cnc(-n2ncc3cc(C#N)cnc32)cc1Nc1cnn(-c2ncc(F)cn2)c1 [Example 411] |  |  | IC50 ([1]; IRAK4 0.6 nM): 1.6 nM; EC50 [2, 4]: 51 nM |
| CC(C)Nc1cc(-n2ccc3cc(C#N)cnc32)ncc1C(=O)N[C@H]1CC[C@@](F)(c2nccn2C)CC1 [Example 420] |  |  | IC50 ([1]; IRAK4 0.6 nM): 4.4 nM; EC50 [2, 4]: 186 nM |
| Cc1cnc2c(cnn2-c2cc(NC(C)C)c(C(=O)N[C@H]3CC[C@H](C(C)(C)O)CC3)cn2)c1 [Example 214] | 13.6 | 209 |  |
| CC(C)Nc1cc(-n2ncc3cc(C#N)cnc32)ncc1C(=O)N[C@@H]1CCCN(S(C)(=O)=O)C1 [Example 245] | 15.7 | 233 |  |
| CC(C)Nc1cc(-n2ncc3cc(C#N)cnc32)ncc1C(=O)NC1CCN(c2ncccn2)CC1 [Example 240] | 15.7 | 305 |  |
| CC(C)n1cc(Nc2cc(-n3ncc4cc(Cl)cnc43)ncc2C(=O)NC[C@@H](F)C(C)(C)O)cn1 [Example 358] | 3.5 |  | IC50 [2, 3]: 257 nM |
| CNC(=O)[C@H]1CC[C@H](NC(=O)c2cnc(-n3ccc4cc(C#N)cnc43)cc2NCC(C)(C)O)CC1 [Example 93, 6-(5-cyano-1H-pyrrolo[2,3-b]pyridin-1-yl)-4-((2-hydroxy-2-methylpropyl)amino)-N-((trans)-4-(methylcarbamoyl)cyclohexyl) nicotinamide] | 8.4 |  | EC50 [2, 5]: 562 nM |
| CC(C)Nc1cc(-n2ccc3cnc(NCC(C)(C)O)nc32)ncc1C(=O)NC[C@@H](F)C(C)(C)O [Example 187, (R)—N-(2-Fluoro-3-hydroxy-3-methylbutyl)-6-(2-((2-hydroxy-2-methylpropyl)amino)-7H-pyrrolo[2,3-d]pyrimidin-7-yl)-4-(isopropylamino)nicotinamide] | 1.9 | 86 |  |
| CC(C)(O)[C@H](F)CNC(=O)c1cnc(-n2ncc3cc(F)cnc32)cc1NC1CCC(F)C1 (some centres unmarked) [Example 621] |  |  | IC50 ([1]; IRAK4 0.6 nM): 4 nM; EC50 [2, 6]: 139 nM |
